According to the supplement of paper PMC10307832:

Legend:
Assay in all cases: relative viability (nuclei count vs DMSO), 5 days (fraction); higher = more cells survive
A-427 = system: A-427
Summary of the method: (§1)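 Five library-drug doses in √10 steps were combined with a fixed anchor-drug dose, or a single drug was given alone, by pin tool to lung cancer cell lines in 1536-well plates the day after seeding. Nuclei were stained and counted after 5 days. Relative viability is the nuclei count in treated wells over that in vehicle wells, taken as the median of duplicate plates.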

COR-L 105 = system: COR-L 105
Summary of the method: as §1

EPLC-272H = system: EPLC-272H
Summary of the method: as §1

HCC-366 = system: HCC-366
Summary of the method: as §1

HCC-78 = system: HCC-78
Summary of the method: as §1

HOP-62 = system: HOP-62
Summary of the method: as §1

LC-2-ad = system: LC-2-ad
Summary of the method: as §1

LU99A = system: LU99A
Summary of the method: as §1

LXF-289 = system: LXF-289
Summary of the method: as §1

NCI-H1666 = system: NCI-H1666
Summary of the method: as §1

NCI-H1792 = system: NCI-H1792
Summary of the method: as §1

NCI-H1793 = system: NCI-H1793
Summary of the method: as §1

NCI-H1915 = system: NCI-H1915
Summary of the method: as §1

NCI-H1944 = system: NCI-H1944
Summary of the method: as §1

NCI-H2009 = system: NCI-H2009
Summary of the method: as §1

NCI-H2085 = system: NCI-H2085
Summary of the method: as §1

NCI-H2170 = system: NCI-H2170
Summary of the method: as §1

NCI-H358 = system: NCI-H358
Summary of the method: as §1

NCI-H460 = system: NCI-H460
Summary of the method: as §1

SK-LU-1 = system: SK-LU-1
Summary of the method: as §1

SW 900 = system: SW 900
Summary of the method: as §1

UMC-11 = system: UMC-11
Summary of the method: as §1

Nc1ccn([C@@H]2O[C@H](CO)[C@@H](O)[C@@H]2O)c(=O)n1 [Cytarabine] + Nc1ncn([C@H]2C[C@H](O)[C@@H](CO)O2)c(=O)n1 [Decitabine] (partner 2 µM)
relative viability (A-427; first compound 0.005 µM): 0.475
relative viability (A-427; first compound 0.01581 µM): 0.421
relative viability (A-427; first compound 0.05 µM): 0.361
relative viability (A-427; first compound 0.1581 µM): 0.259
relative viability (A-427; first compound 0.5 µM): 0.263
relative viability (COR-L 105; first compound 0.005 µM): 0.623
relative viability (COR-L 105; first compound 0.01581 µM): 0.642
relative viability (COR-L 105; first compound 0.05 µM): 0.426
relative viability (COR-L 105; first compound 0.1581 µM): 0.398
relative viability (COR-L 105; first compound 0.5 µM): 0.303
relative viability (EPLC-272H; first compound 0.005 µM): 0.403
relative viability (EPLC-272H; first compound 0.01581 µM): 0.358
relative viability (EPLC-272H; first compound 0.05 µM): 0.346
relative viability (EPLC-272H; first compound 0.1581 µM): 0.224
relative viability (EPLC-272H; first compound 0.5 µM): 0.247
relative viability (HCC-366; first compound 0.005 µM): 0.402
relative viability (HCC-366; first compound 0.01581 µM): 0.292
relative viability (HCC-366; first compound 0.05 µM): 0.231
relative viability (HCC-366; first compound 0.1581 µM): 0.0925
relative viability (HCC-366; first compound 0.5 µM): 0.0894
relative viability (HCC-78; first compound 0.005 µM): 0.715
relative viability (HCC-78; first compound 0.01581 µM): 0.668
relative viability (HCC-78; first compound 0.05 µM): 0.587
relative viability (HCC-78; first compound 0.1581 µM): 0.492
relative viability (HCC-78; first compound 0.5 µM): 0.44
relative viability (HOP-62; first compound 0.005 µM): 0.222
relative viability (HOP-62; first compound 0.01581 µM): 0.189
relative viability (HOP-62; first compound 0.05 µM): 0.179
relative viability (HOP-62; first compound 0.1581 µM): 0.162
relative viability (HOP-62; first compound 0.5 µM): 0.126
relative viability (LC-2-ad; first compound 0.005 µM): 0.727
relative viability (LC-2-ad; first compound 0.01581 µM): 0.682
relative viability (LC-2-ad; first compound 0.05 µM): 0.759
relative viability (LC-2-ad; first compound 0.1581 µM): 0.69
relative viability (LC-2-ad; first compound 0.5 µM): 0.499
relative viability (LU99A; first compound 0.005 µM): 0.863
relative viability (LU99A; first compound 0.01581 µM): 0.781
relative viability (LU99A; first compound 0.05 µM): 0.93
relative viability (LU99A; first compound 0.1581 µM): 0.925
relative viability (LU99A; first compound 0.5 µM): 0.823
relative viability (LXF-289; first compound 0.005 µM): 0.387
relative viability (LXF-289; first compound 0.01581 µM): 0.312
relative viability (LXF-289; first compound 0.05 µM): 0.314
relative viability (LXF-289; first compound 0.1581 µM): 0.227
relative viability (LXF-289; first compound 0.5 µM): 0.197
relative viability (NCI-H1666; first compound 0.005 µM): 0.73
relative viability (NCI-H1666; first compound 0.01581 µM): 0.633
relative viability (NCI-H1666; first compound 0.05 µM): 0.543
relative viability (NCI-H1666; first compound 0.1581 µM): 0.523
relative viability (NCI-H1666; first compound 0.5 µM): 0.455
relative viability (NCI-H1792; first compound 0.01581 µM): 0.647
relative viability (NCI-H1792; first compound 0.05 µM): 0.387
relative viability (NCI-H1792; first compound 0.1581 µM): 0.251
relative viability (NCI-H1792; first compound 0.5 µM): 0.205
relative viability (NCI-H1793; first compound 0.005 µM): 0.585
relative viability (NCI-H1793; first compound 0.01581 µM): 0.35
relative viability (NCI-H1793; first compound 0.05 µM): 0.336
relative viability (NCI-H1793; first compound 0.1581 µM): 0.212
relative viability (NCI-H1793; first compound 0.5 µM): 0.237
relative viability (NCI-H1915; first compound 0.005 µM): 0.248
relative viability (NCI-H1915; first compound 0.01581 µM): 0.289
relative viability (NCI-H1915; first compound 0.05 µM): 0.269
relative viability (NCI-H1915; first compound 0.1581 µM): 0.231
relative viability (NCI-H1915; first compound 0.5 µM): 0.227
relative viability (NCI-H1944; first compound 0.005 µM): 0.335
relative viability (NCI-H1944; first compound 0.01581 µM): 0.347
relative viability (NCI-H1944; first compound 0.05 µM): 0.319
relative viability (NCI-H1944; first compound 0.1581 µM): 0.194
relative viability (NCI-H1944; first compound 0.5 µM): 0.151
relative viability (NCI-H2009; first compound 0.005 µM): 0.325
relative viability (NCI-H2009; first compound 0.01581 µM): 0.363
relative viability (NCI-H2009; first compound 0.05 µM): 0.342
relative viability (NCI-H2009; first compound 0.1581 µM): 0.243
relative viability (NCI-H2009; first compound 0.5 µM): 0.189
relative viability (NCI-H2085; first compound 0.005 µM): 0.491
relative viability (NCI-H2085; first compound 0.01581 µM): 0.512
relative viability (NCI-H2085; first compound 0.05 µM): 0.518
relative viability (NCI-H2085; first compound 0.1581 µM): 0.483
relative viability (NCI-H2085; first compound 0.5 µM): 0.559
relative viability (NCI-H2170; first compound 0.005 µM): 0.393
relative viability (NCI-H2170; first compound 0.01581 µM): 0.346
relative viability (NCI-H2170; first compound 0.05 µM): 0.355
relative viability (NCI-H2170; first compound 0.1581 µM): 0.254
relative viability (NCI-H2170; first compound 0.5 µM): 0.241
relative viability (NCI-H358; first compound 0.005 µM): 0.229
relative viability (NCI-H358; first compound 0.01581 µM): 0.205
relative viability (NCI-H358; first compound 0.05 µM): 0.226
relative viability (NCI-H358; first compound 0.1581 µM): 0.133
relative viability (NCI-H358; first compound 0.5 µM): 0.107
relative viability (NCI-H460; first compound 0.005 µM): 0.451
relative viability (NCI-H460; first compound 0.01581 µM): 0.406
relative viability (NCI-H460; first compound 0.05 µM): 0.336
relative viability (NCI-H460; first compound 0.1581 µM): 0.0621
relative viability (NCI-H460; first compound 0.5 µM): 0.0458
relative viability (SK-LU-1; first compound 0.005 µM): 0.526
relative viability (SK-LU-1; first compound 0.01581 µM): 0.565
relative viability (SK-LU-1; first compound 0.05 µM): 0.524
relative viability (SK-LU-1; first compound 0.1581 µM): 0.462
relative viability (SK-LU-1; first compound 0.5 µM): 0.372
relative viability (SW 900; first compound 0.005 µM): 0.384
relative viability (SW 900; first compound 0.01581 µM): 0.344
relative viability (SW 900; first compound 0.05 µM): 0.325
relative viability (SW 900; first compound 0.1581 µM): 0.199
relative viability (SW 900; first compound 0.5 µM): 0.287
relative viability (UMC-11; first compound 0.005 µM): 0.547
relative viability (UMC-11; first compound 0.01581 µM): 0.521
relative viability (UMC-11; first compound 0.05 µM): 0.328
relative viability (UMC-11; first compound 0.1581 µM): 0.32
relative viability (UMC-11; first compound 0.5 µM): 0.306
